pIC50: −log10 of the molar value. Converted amounts (≈) assume the structure as drawn. Values belong to the compound of their own block, whether it stands above or below them.
Legend:
[1] = Oral bioavailability in rat; assay type: ADME, organism-based; settings: in vivo
[2] = MRT in iv dosed rat; assay type: ADME, organism-based; settings: in vivo
[3] = Fraction unbound in rat plasma; assay type: ADME, cell-free
Cytochrome P450 3A4 = Cytochrome P450 3A4 (Homo sapiens, UniProt P08684); experiment: Time dependent inhibition of recombinant human CYP3A4 expressed in bactosomes at 100 to 300 uM using 7-benzyloxy-4-(trifluoromethyl)-coumarin substrate in presence of NADPH-generating system incubated up to 15 mins by fluorescence based assay; assay type: ADME; settings: recombinant enzyme, 0.25 h, dose 100-300 µM
Cytochrome P450 3A4, sequence (P08684 whole entry): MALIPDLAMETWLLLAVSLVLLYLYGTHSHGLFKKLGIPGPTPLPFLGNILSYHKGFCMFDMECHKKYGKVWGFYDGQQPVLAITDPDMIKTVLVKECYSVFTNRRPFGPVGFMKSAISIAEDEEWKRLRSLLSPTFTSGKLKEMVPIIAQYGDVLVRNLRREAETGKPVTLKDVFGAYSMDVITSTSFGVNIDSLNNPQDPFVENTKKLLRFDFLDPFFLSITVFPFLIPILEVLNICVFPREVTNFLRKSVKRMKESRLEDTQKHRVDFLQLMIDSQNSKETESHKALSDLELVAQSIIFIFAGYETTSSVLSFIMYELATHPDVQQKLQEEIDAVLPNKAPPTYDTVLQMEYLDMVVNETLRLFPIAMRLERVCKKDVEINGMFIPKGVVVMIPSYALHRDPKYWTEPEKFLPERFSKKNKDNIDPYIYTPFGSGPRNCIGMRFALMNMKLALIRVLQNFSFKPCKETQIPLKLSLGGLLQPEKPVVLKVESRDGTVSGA

[4] = Dose normalized AUC in orally dosed rat; assay type: ADME, organism-based; settings: in vivo, po
[5] = Clearance in iv dosed rat; assay type: ADME, organism-based; settings: in vivo
[6] = molecular target: Transient receptor potential cation channel subfamily V member 4 (Homo sapiens, UniProt Q9HBA0); experiment: Antagonist activity at human TRPV4 expressed in BHK or HEK MSR2 cells assessed as inhibition of TRPV4 agonist GSK634775 (EC80)-induced response incubated for 10 mins; assay type: cell-based
Transient receptor potential cation channel subfamily V member 4, sequence (Q9HBA0 whole entry): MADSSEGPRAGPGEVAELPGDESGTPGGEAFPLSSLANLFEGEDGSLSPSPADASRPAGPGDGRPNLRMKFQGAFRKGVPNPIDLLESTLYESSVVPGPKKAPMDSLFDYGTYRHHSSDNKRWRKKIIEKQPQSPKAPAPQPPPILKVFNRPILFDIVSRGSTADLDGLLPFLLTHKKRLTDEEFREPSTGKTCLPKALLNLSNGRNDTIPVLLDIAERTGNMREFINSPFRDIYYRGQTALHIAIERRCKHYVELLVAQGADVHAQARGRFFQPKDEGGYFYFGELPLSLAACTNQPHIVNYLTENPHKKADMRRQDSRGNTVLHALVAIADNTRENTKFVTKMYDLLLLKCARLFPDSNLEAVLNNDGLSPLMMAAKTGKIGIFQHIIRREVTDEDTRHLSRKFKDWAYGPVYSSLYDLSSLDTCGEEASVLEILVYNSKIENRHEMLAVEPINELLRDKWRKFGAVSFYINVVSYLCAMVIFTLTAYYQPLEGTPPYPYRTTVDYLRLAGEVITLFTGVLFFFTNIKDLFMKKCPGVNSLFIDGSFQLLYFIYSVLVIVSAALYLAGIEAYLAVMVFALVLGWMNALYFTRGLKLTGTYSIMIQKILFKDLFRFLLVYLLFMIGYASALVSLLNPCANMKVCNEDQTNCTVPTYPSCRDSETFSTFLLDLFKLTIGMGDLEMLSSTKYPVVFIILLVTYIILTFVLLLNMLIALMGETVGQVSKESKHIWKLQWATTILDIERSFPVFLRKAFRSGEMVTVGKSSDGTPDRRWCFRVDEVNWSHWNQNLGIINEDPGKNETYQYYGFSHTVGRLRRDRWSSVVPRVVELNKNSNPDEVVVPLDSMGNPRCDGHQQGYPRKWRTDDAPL

[7] = Distribution coefficient, log D of the compound by chromatographic method; assay type: physicochemical; settings: octanol/water
[8] = Solubility of the compound by CLND assay; assay type: physicochemical
[9] = Cmax in rat; assay type: ADME; settings: in vivo
[10] = Unbound clearance in iv dosed rat; assay type: ADME, organism-based; settings: in vivo
[11] = Volume of distribution at steady state in iv dosed rat; assay type: ADME, organism-based; settings: in vivo, read-out: Vdss

pIC50 [6]: 4.90
Structure (SMILES): NC(CCNS(=O)(=O)c1ccc(Cl)cc1Cl)COc1cccc(Cl)c1 (centres undefined)

chromatographic logD [7]: 4.6 | solubility kinetic [8]: ≥ 390 µM
Structure (SMILES): N#Cc1ccc(OCC(N)CCNS(=O)(=O)c2ccc(Cl)cc2Cl)cc1F (racemic)

pIC50 [6]: 5.00
Structure (SMILES): CN(CCC(O)COc1ccc(C#N)c(F)c1)S(=O)(=O)c1ccc(Cl)cc1Cl (racemic)

pIC50 [6]: < 4.60
Structure (SMILES): Cc1cccc(OCC(N)CCNS(=O)(=O)c2ccc(Cl)cc2Cl)c1 (centres undefined)

chromatographic logD [7]: 5.2 | solubility kinetic [8]: 113 µM (≈ 49 µg/mL)
Structure (SMILES): N#Cc1ccc(OCC(O)CCNS(=O)(=O)c2ccc(Cl)cc2Cl)cc1F (centres undefined)

pIC50 [6]: 4.90
Structure (SMILES): N#Cc1ccc(OCC(N)CCNS(=O)(=O)c2cccc(Cl)c2)cc1F (racemic)

bioavailability [1]: 85% | Cmax [9]: 930 ng/mL | chromatographic logD [7]: 4.5 | CL free [10]: 512 mL/min/kg | Vd [11]: 1.8 L/kg | MRT [2]: 7.5 h | fraction unbound [3]: 0.0084 | inhibition (INH) (Cytochrome P450 3A4): Active | solubility kinetic [8]: 381 µM (≈ 165 µg/mL) | AUC/dose [4]: 4.7 µg·h/mL | clearance [5]: 4.3 mL/min/kg
Structure (SMILES): N#Cc1ccc(OC[C@@H](N)CCNS(=O)(=O)c2ccc(Cl)cc2Cl)cc1F

bioavailability [1]: 22% | MRT [2]: 2.3 h | fraction unbound [3]: 0.029 | inhibition (INH) (Cytochrome P450 3A4): Active | AUC/dose [4]: 0.1 µg·h/mL | clearance [5]: 38 mL/min/kg
Structure (SMILES): N#Cc1ccc(N)c(OC[C@@H](N)CCNS(=O)(=O)c2ccc(Cl)cc2Cl)c1

The next lines start with the compound.

Structure (SMILES): N#Cc1ccc(S(=O)(=O)NCC[C@H](N)COc2ccc(C#N)c(F)c2)c(C(F)(F)F)c1
bioavailability [1]: 100% | MRT [2]: 6.9 h | fraction unbound [3]: 0.015 | inhibition (INH) (Cytochrome P450 3A4): Active | AUC/dose [4]: 3.7 µg·h/mL | clearance [5]: 4.7 mL/min/kg

Structure (SMILES): C[C@](N)(CCNS(=O)(=O)c1ccc(C#N)cc1C(F)(F)F)COc1ccc(C#N)c(F)c1
bioavailability [1]: 100% | MRT [2]: 7 h | fraction unbound [3]: 0.064 | inhibition (INH) (Cytochrome P450 3A4): Not Active | AUC/dose [4]: 0.6 µg·h/mL | clearance [5]: 37 mL/min/kg

Structure (SMILES): N#Cc1ccc(OCC(N)CCNS(=O)(=O)c2ccccc2)cc1F (racemic)
pIC50 [6]: 4.70

Structure (SMILES): N#Cc1ccc(OC[C@@H](N)CCNS(=O)(=O)c2ccccc2C(F)(F)F)cc1F
pIC50 [6]: 7.40

Structure (SMILES): COc1ccccc1S(=O)(=O)NCC[C@H](N)COc1ccc(C#N)c(F)c1
pIC50 [6]: 5.10

Structure (SMILES): N#Cc1ccc(OC[C@@H](N)CCNS(=O)(=O)c2ccc(C(F)(F)F)cc2)cc1F
pIC50 [6]: 6.20

Structure (SMILES): N#Cc1ccc(OC[C@@H](N)CCNS(=O)(=O)c2ccccc2OC(F)(F)F)cc1F
pIC50 [6]: 6.20

Structure (SMILES): N#Cc1ccc(OCC2(O)CCN(S(=O)(=O)c3ccc(Cl)cc3Cl)CC2)cc1F
pIC50 [6]: 7.00 | solubility kinetic [8]: 7.5 µM (≈ 3.44 µg/mL)

From ChEMBL document CHEMBL4699649, “Design and Optimization of an Acyclic Amine Series of TRPV4 Antagonists by Electronic Modulation of Hydrogen Bond Interactions” (J Med Chem, 2020)
